How the values were obtained:
[1] = target: purified recombinant human GAC (GLS1) (Homo sapiens (Human), UniProt O94925); assay: GLS1 Enzymatic Activity Assay (dual-coupled enzymatic assay, resorufin/Amplex UltraRed readout); format: biochemical;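 further: glutamate from GAC coupled via glutamate oxidase and peroxidase to resorufin, read as fluorescence (ex 530, em 590 nm) kinetically or at 20 min, four-parameter logistic IC50 fit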
[2] = test system: A549 cells; assay: Proliferation Assay (A549 viability, Cell Titer Fluor, 72 hours); format: cell-based; settings: Homo sapiens
Outline: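 Cell Titer Fluor fluorescence after 72 h compound treatment (0.5% DMSO, 37 °C, 5% CO2) of A549 cells plated 24 h earlier at 1000/well. Four-parameter logistic fitting gave IC50.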

purified recombinant human GAC (GLS1), sequence (O94925 other isoform, or with tags, fused parts or gaps): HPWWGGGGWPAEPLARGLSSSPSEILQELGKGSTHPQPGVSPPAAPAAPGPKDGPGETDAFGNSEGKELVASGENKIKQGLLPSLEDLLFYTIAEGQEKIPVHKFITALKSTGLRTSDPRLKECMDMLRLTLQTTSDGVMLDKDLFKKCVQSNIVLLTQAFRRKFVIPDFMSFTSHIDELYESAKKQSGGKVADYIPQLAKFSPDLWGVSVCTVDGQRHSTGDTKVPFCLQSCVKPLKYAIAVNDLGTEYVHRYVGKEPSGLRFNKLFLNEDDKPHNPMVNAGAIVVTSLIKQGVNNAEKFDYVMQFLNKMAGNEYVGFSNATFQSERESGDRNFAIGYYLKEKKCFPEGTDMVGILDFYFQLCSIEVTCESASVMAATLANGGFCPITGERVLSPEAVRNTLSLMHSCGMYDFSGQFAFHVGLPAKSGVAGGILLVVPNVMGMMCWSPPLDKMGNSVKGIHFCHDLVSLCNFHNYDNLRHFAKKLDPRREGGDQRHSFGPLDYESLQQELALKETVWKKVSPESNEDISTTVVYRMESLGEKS

| Structure (SMILES) | IC50 [1] | EC50 ([2]; A549, 72 h) | EC50 [2] |
| --- | --- | --- | --- |
| O=C(NCc1cncc(C(F)(F)F)c1)c1cn(CCCCn2cc(C(=O)NCc3ccc(C(F)(F)F)cn3)nn2)nn1 [Example 142, 1-{4-[4-({[5-(trifluoromethyl)pyridin-2-yl]methyl}carbamoyl)-1H-1,2,3-triazol-1-yl]butyl}-N-{[5-(trifluoromethyl)pyridin-3-yl]methyl}-1H-1,2,3-triazole-4-\ carboxamide] | < 100 nM | < 100 nM |  |
| O=C(Cc1ccccn1)Nc1cn(CC(F)CCn2cc(C(=O)NCc3cc(OC(F)(F)F)ccc3F)nn2)nn1 (stereo not drawn) [Example 363, 1-(3-fluoro-4-{4-[2-(pyridin-2-yl)acetamido]-1H-1,2,3-triazol-1-yl}butyl)-N-{[2-fluoro-5-(trifluoromethoxy)phenyl]methyl}-1H-1,2,3-triazole-4-carboxamide] | < 100 nM | < 100 nM |  |
| CNC(=O)c1cn(CCC(F)Cn2cc(C(=O)NCc3cncc(C(F)(F)F)c3)nn2)nn1 (stereo not drawn) [Example 151, 1-{3-fluoro-4-[4-({[5-(trifluoromethyl)pyridin-3-1-yl]methyl}carbamoyl)-1H-1,2,3-triazol-1-yl]butyl}-N-methyl-1H-1,2,3-triazole-4-carboxamide] | 100 to 500 nM | 500 to 5000 nM |  |
| O=C(NCC1CCCCO1)c1cn(CCC(F)Cn2cc(C(=O)NCc3cc(C(F)(F)F)ccn3)nn2)nn1 (stereo not drawn) [Example 472, 1-(2-fluoro-4-{4-[(oxan-2-ylmethyl)carbamoyl]-1H-1,2,3-triazol-1-yl}butyl)-N-{[4-(trifluoromethyl)pyridin-2-yl]methyl}-1H-1,2,3-triazole-4-carboxamide] | 100 to 500 nM | 100 to 500 nM |  |
| O=C(CN1CCC(F)(F)CC1)Nc1cn(CCCCn2cc(C(=O)NCc3cccc(OC(F)(F)F)c3)nn2)nn1 [Example 332, 1-(4-(4-(2-(4,4-difluoropiperidin-1-yl)acetamido)-1H-1,2,3-triazol-1-yl)butyl)-N-(3-(trifluoromethoxy)benzyl)-1H-1,2,3-triazole-4-carboxamide] | < 100 nM |  | 100 to 500 nM |
| O=C(NCc1ccccc1)c1cn(CCCCn2cc(C(=O)NCc3cc(C(F)(F)F)ccn3)nn2)nn1 [Example 96, 1-{4-[4-(benzylcarbamoyl)-1H-1,2,3-triazol-1-yl]butyl}-N-{[4-(trifluoromethyl)pyridin-2-yl]methyl}-1H-1,2,3-triazole-4-carboxamide] | 100 to 500 nM | 100 to 500 nM |  |
| CNC(=O)c1nnc(CCCCc2ccc(NC(=O)Cc3cncc(-c4cccc(OC(F)(F)F)c4)c3)nn2)s1 [Example 216, N-methyl-5-(4-(6-(2-(5-(3-(trifluoromethoxy)phenyl)pyridin-3-yl)acetamido)pyridazin-3-yl)butyl)-1,3,4-thiadiazole-2-carboxamide] | < 100 nM | < 100 nM |  |
| CNC(=O)c1cn(CC(F)CCc2nnc(C(=O)NCc3cc(C(F)(F)F)ccn3)s2)nn1 (racemic) [Example 508, 5-(3-fluoro-4-(4-(methylcarbamoyl)-1H-1,2,3-triazol-1-yl)butyl)-N-((4-(trifluoromethyl)pyridin-2-yl)methyl)-1,3,4-thiadiazole-2-carboxamide] | 100 to 500 nM |  | 100 to 500 nM |
| O=C(Cc1cc(OC(F)(F)F)ccc1F)Nc1ccc(CCCCn2cc(C(=O)NCc3ccccn3)nn2)nn1 [Example 585, 1-(4-(6-(2-(2-fluoro-5-(trifluoromethoxy)phenyl)acetamido)pyridazin-3-yl)butyl)-N-(pyridin-2-ylmethyl)-1H-1,2,3-triazole-4-carboxamide] | < 100 nM | < 100 nM |  |
